In patent publication US7109209B2, “Pyrazolopyridines, process for their preparation and use as therapeutic compounds” (SmithKline Beecham Corporation, priority 2001, dated 2006):

Tested on: HSV-1
Assay: HSV-1 infection of Vero 76 cells, viral DNA detected by hybridization capture (chemiluminescence)
Assay type: cell-based
Details: Human alphaherpesvirus 1; HSV-1 in Vero 76 cells, MOI=0.001, 40-48 hours at 37° C.
Procedure: Vero 76 cells were maintained in MEM with Earle's salts, L-glutamine, 8% FBS (Hyclone, A-1111-L) and 100 units/mL Penicillin-100 μg/mL Streptomycin. For assay conditions, FBS was reduced to 2%. Cells are seeded into 96-well tissue culture plates at a density of 5×10^4 cells/well after being incubated for 45 min at 37° C. in the presence of HSV-1 or HSV-2 (MOI=0.001). Test compounds are added to the wells and the plates are incubated at 37° C. for 40-48 hours. Cell lysates are prepared as follows: media was removed and replaced with 150 VL/well 0.2 N NaOH with 1% Igepal CA 630 or NP-40. Plates were incubated up to 14 days at room temperature in a humidified chamber to prevent evaporation.
For the detection probe, a gel-purified, digoxigenin-labeled, 710-bp PCR fragment of the HSV UL-15 sequence was utilized. […]
Twenty-seven (27) μL of cell lysate was combined with 45 μL of hybridization solution (final concentration: 3M GuSCN, 50 mM EDTA, 100 μg/ml salmon sperm DNA, 5× Denhardt's solution, 0.25×APE, and 5 ng of the digoxigenin-labeled detection probe). […] The plates were incubated at room temperature for 30 minutes and chemiluminescence was measured in a Wallac Victor reader.

Structure (SMILES): CCSc1cc(Cl)cc2c(-c3ccnc(NC4CCCC4)n3)c(-c3ccc(F)cc3)nn12 [Example 32, N-{4-[5-Chloro-7-(ethylsulfanyl)-2-(4-fluorophenyl)pyrazolo[1,5-α]pyridin-3-yl]-2-pyrimidinyl}-N-cyclopentylamine]
- IC50: 2000 nM

Structure (SMILES): CSc1cc(N2CCOCC2)cc2c(-c3ccnc(NC4CCCC4)n3)c(-c3ccc(F)cc3)nn12 [Example 44, N-Cyclopentyl-4-[2-(4-fluorophenyl)-7-(methylthio)-5-morpholin-4-ylpyrazolo[1,5-α]pyridin-3-yl]pyrimidin-2-amine]
- IC50: 500 nM
